Earlier results in patent US20010014685A1, “Injectable pharmaceutical composition for treatment and reversal of erectile dysfunction” (USA DOCTORS PRODUCTS, INC., priority 1998, published 2001).

Test system: erectile dysfunction
Settings: injectable products including only prostaglandin-E1 / existing preparations

For `CCCCC[C@H](O)/C=C/[C@H]1[C@H](O)CC(=O)[C@@H]1CCCCCCC(=O)O` [prostaglandin-E1], the “efficacy for treatment of erectile dysfunction” value is listed as no more than 50%.
